The text below walks through data of patent US10919852B2, “Immunomodulator compounds” (CHEMOCENTRYX, INC., priority 2017, dated 2021).

pIC50: −log10 of the molar value. Some results are limits rather than exact numbers.

In the experiment the target is human PD-L1 / Human PD-1 (Homo sapiens (Human), UniProt Q9NZQ7). Kind of experiment: Enzyme-Linked Immunosorbent Assay (ELISA), PD-1/PD-L1 binding. The settings on record: plate-coated human PD-L1, biotinylated human PD-1. Put shortly: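 Plates were coated with human PD-L1 at […]. Biotinylated human PD-1 (0.3 μg/mL) was added with 1:5 serially diluted compound for 1 h at 37 °C. Bound PD-1 was detected with streptavidin-HRP (1 h) and TMB (20 min), with absorbance read at 450 nm.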
In general terms: ELISA stands for enzyme-linked immunosorbent assay.

Sequence of human PD-L1 / Human PD-1 (Q9NZQ7 19-239): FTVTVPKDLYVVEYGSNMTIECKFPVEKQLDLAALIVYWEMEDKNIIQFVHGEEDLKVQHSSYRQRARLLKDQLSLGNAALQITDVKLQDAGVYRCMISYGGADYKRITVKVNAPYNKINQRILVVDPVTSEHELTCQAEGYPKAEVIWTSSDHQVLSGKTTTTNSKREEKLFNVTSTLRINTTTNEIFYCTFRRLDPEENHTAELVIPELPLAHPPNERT

One may read the pIC50 as the negative decadic logarithm of the IC50, by convention in mol/L. As for `Cc1c(OCCCN2CC3(CC(O)C3)C2)cccc1-c1cccc2c1CC[C@@H]2Oc1cc(OCc2cncc(C#N)c2)c(CN[C@H](C(=O)O)[C@@H](C)O)cc1Cl`, the pIC50 is more than 8.30.

Consider `COC(=O)[C@@H](NCc1cc(Cl)c(O[C@H]2CCc3c(-c4cccc(OCCCN5CCC(O)CC5)c4C)cccc32)cc1OCc1cncc(C#N)c1)[C@@H](C)O`, for which the pIC50 was 6.30 to 8.30.

Take `Cc1c(OCCCN2CCC(C)(F)CC2)cccc1-c1cccc2c1CC[C@@H]2Oc1cc(OCc2cc(C#N)cc(C#N)c2)c(CN[C@H]2CCC(=O)NC2)cc1Cl`: the pIC50 is 6.30 to 8.30. As for `Cc1c(OCCCN2CCC(C)(F)CC2)cccc1-c1cccc2c1CC[C@@H]2Oc1cc(OCc2cc(C#N)cc(C#N)c2)c(CN[C@@H]2CCC(=O)NC2)cc1Cl`, the pIC50 was 6.30 to 8.30. For the compound `Cc1c(OCCCN2CCC(O)CC2(C)C)cccc1-c1cccc2c1CC[C@@H]2Oc1cc(OCc2cc(C#N)cc(C#N)c2)c(CN[C@H]2CCC(=O)NC2)cc1Cl` (stereo partly drawn), the pIC50 is more than 8.30. The figure for `Cc1c(OCCCN2CCCC2)cccc1-c1cccc2c1CC[C@@H]2Oc1cc(OCc2cc(C#N)cc(C#N)c2)c(CN[C@H]2CCC(=O)NC2)cc1Cl` is more than 8.30; for `Cc1c(OCCCN2CCC(F)CC2)cccc1-c1cccc2c1CC[C@@H]2Oc1cc(OCc2cc(C#N)cc(C#N)c2)c(CNCC(=O)NS(C)(=O)=O)cc1Cl` it is more than 8.30; for `Cc1c(OCCCN2CCC(C)(F)CC2)cccc1-c1cccc2c1CC[C@@H]2Oc1cc(OCc2cc(C#N)cc(C#N)c2)c(CN2CCC3(C2)NC(=O)NC3=O)cc1Cl` (stereo partly drawn) it is 6.30 to 8.30.

On to `Cc1c(OCCCN2CCC(C)(F)CC2)cccc1-c1cccc2c1CC[C@@H]2Oc1cc(OCc2cc(C#N)cc(C#N)c2)c(CN[C@H]2CCC[C@@H]2O)cc1Cl`, for which the pIC50 is 6.30 to 8.30.

Compound `Cc1c(OCCCN2CCCCC2(C)C)cccc1-c1cccc2c1CC[C@@H]2Oc1cc(OCc2cc(C#N)cc(C#N)c2)c(CNC[C@H]2CCC(=O)N2)cc1Cl` showed a pIC50 of 6.30 to 8.30. Compound `Cc1c(OCCCN2CCC(C)(F)C2)cccc1-c1cccc2c1CC[C@@H]2Oc1cc(OCc2cc(C#N)cc(C#N)c2)c(CN[C@H]2CCC(=O)NC2)cc1Cl` (stereo partly drawn) showed a pIC50 of 6.30 to 8.30. `CCN1CCC(COc2cccc(-c3cccc4c3CC[C@@H]4Oc3cc(OCc4cncc(C#N)c4)c(CNC[C@@H]4CCC(=O)N4)cc3Cl)c2Cl)C1` (stereo partly drawn) had a pIC50 of more than 8.30. As to `CC(C)N1CCC(COc2cccc(-c3cccc4c3CC[C@@H]4Oc3cc(OCc4cncc(C#N)c4)c(CNC[C@@H]4CCC(=O)N4)cc3Cl)c2Cl)C1` (stereo partly drawn), the pIC50 is more than 8.30. In turn, `CC(C)N1CCC(COc2cccc(-c3cccc4c3CC[C@@H]4Oc3cc(OCc4cncc(C#N)c4)c(CN[C@H]4CCC(=O)NC4)cc3Cl)c2Cl)C1` (stereo partly drawn) gave a pIC50 of more than 8.30. `Cc1c(OCCCN2CCC(F)CC2)cccc1-c1cccc2c1C[C@H](F)[C@@H]2Oc1cc(OCc2cc(C#N)cc(C#N)c2)c(CN[C@H]2CCC(=O)NC2)cc1Cl` gave a pIC50 of 6.30 to 8.30.

On to `Cc1c(OCCCN2CCC(C)(F)CC2)cccc1-c1cccc2c1C[C@H](F)[C@@H]2Oc1cc(OCc2cc(C#N)cc(C#N)c2)c(CN[C@H]2CCC(=O)NC2)cc1Cl`, for which the pIC50 was 6.30 to 8.30. `Cc1c(OCCCN2CCCC2(C)C)cccc1-c1cccc2c1CC[C@@H]2Oc1cc(OCc2cc(C#N)cc(C#N)c2)c(CN[C@H]2CCC(=O)NC2)cc1Cl` gave a pIC50 of more than 8.30. The figure for `CCN1CCC(COc2cccc(-c3cccc4c3CC[C@@H]4Oc3cc(OCc4cncc(C#N)c4)c(CN[C@H]4CCC(=O)NC4)cc3Cl)c2Cl)C1` (stereo partly drawn) is more than 8.30; for `Cc1c(OCCCN2CCC(F)CC2)cccc1-c1cc(F)cc2c1CC[C@@H]2Oc1cc(OCc2cc(C#N)cc(C#N)c2)c(CN[C@H]2CCC(=O)NC2)cc1Cl` it is 6.30 to 8.30. On to `Cc1c(OCCCN2CCC(F)CC2)cccc1-c1cccc2c1CC[C@@H]2Oc1cc(OCc2cc(C#N)cc(C#N)c2)c(CN[C@H]2CCCNC2=O)cc1Cl`, for which the pIC50 is 6.30 to 8.30. The figure for `Cc1c(OCCCN2CCC(F)CC2)cccc1-c1cccc2c1CC[C@@H]2Oc1cc(OCc2cc(C#N)cc(C#N)c2)c(CN[C@@H]2CCCNC2=O)cc1Cl` is 6.30 to 8.30.
